# Measurements taken from ChEMBL document CHEMBL5512654, “Discovery of novel Thymol-TPP antibiotics that eradicate MRSA persisters” (Eur J Med Chem, 2024).
# Calls of active or inactive are those of the source. The calls are words filed in the database; no cut-off is given here.
# How the values were obtained:
# Staphylococcus aureus [1] = assay: Antibacterial activity against Staphylococcus aureus ATCC 43300 assessed as inhibition of bacterial growth measured after 18 hrs by microplate reader; format: functional; conditions: read-out: MIC100
# Staphylococcus aureus [2] = assay: Antibacterial activity against methicillin-resistant Staphylococcus aureus USA 3390 assessed as inhibition of bacterial growth measured after 18 hrs by microplate reader; format: functional; conditions: read-out: MIC100
# Staphylococcus aureus [3] = assay: Antibacterial activity against methicillin-resistant Staphylococcus aureus USA 300 assessed as inhibition of bacterial growth measured after 18 hrs by microplate reader; format: functional; conditions: read-out: MIC100
# Acinetobacter baumannii [4] = assay: Antibacterial activity against Acinetobacter baumannii ATCC 1318 assessed as inhibition of bacterial growth measured after 18 hrs by microplate reader; format: functional
# Acinetobacter baumannii [5] = assay: Antibacterial activity against Acinetobacter baumannii ATCC 19606 assessed as inhibition of bacterial growth measured after 18 hrs by microplate reader; format: functional
# Klebsiella pneumoniae [6] = assay: Antibacterial activity against Klebsiella pneumonia ATCC 700603 assessed as inhibition of bacterial growth measured after 18 hrs by microplate reader; format: functional
# Escherichia coli [7] = assay: Antibacterial activity against Escherichia coli 53328 assessed as inhibition of bacterial growth measured after 18 hrs by microplate reader; format: functional; conditions: read-out: MIC100
# Pseudomonas aeruginosa [8] = assay: Antibacterial activity against Pseudomonas aeruginosa ATCC 27853 assessed as inhibition of bacterial growth measured after 18 hrs by microplate reader; format: functional
# Klebsiella pneumoniae [9] = assay: Antibacterial activity against Klebsiella pneumonia 3026 assessed as inhibition of bacterial growth measured after 18 hrs by microplate reader; format: functional
# Escherichia coli [10] = assay: Antibacterial activity against Escherichia coli ATCC 25922 assessed as inhibition of bacterial growth measured after 18 hrs by microplate reader; format: functional; conditions: read-out: MIC100
# [11] = Cytotoxicity against human L02 cells incubated for 72 hrs by MTT dye reduction assay; format: toxicity, cell-based
# Pseudomonas aeruginosa [12] = assay: Antibacterial activity against Pseudomonas aeruginosa 535 assessed as inhibition of bacterial growth measured after 18 hrs by microplate reader; format: functional
# Staphylococcus aureus [13] = assay: Bactericidal activity against methicillin-resistant Staphylococcus aureus USA 3390 assessed as reduction in CFU at 1 times of MIC concentration measured for short time by time-kill kinetics assay; format: functional, organism-based
# Staphylococcus aureus [14] = assay: Antibacterial activity against methicillin-resistant Staphylococcus aureus USA 3390 assessed as resistance development measured after 30 generations; format: functional, organism-based
# Staphylococcus aureus [15] = assay: Bactericidal activity against methicillin-resistant Staphylococcus aureus USA 3390 assessed as reduction in CFU at 4 to 8 times of MIC concentration measured after 24 hrs by time-kill kinetics assay; format: functional, organism-based
# Staphylococcus aureus [16] = assay: In vivo antibacterial efficacy in bioluminescent Staphylococcus aureus Xen29 infected in mouse topical infection model assessed as reduction in number of colonies at 8 mg/kg, sc treated 16, 24, 36, 48, […] hrs post-infection measured after 84 hrs relative to control; format: functional
structure (smiles),measurement,setting,value
Cc1cc(O)c(C(C)C)cc1-c1cccc(C(F)(F)F)c1,MIC,Staphylococcus aureus [1],8 µg/mL
same,MIC,Staphylococcus aureus [2],8 µg/mL
same,MIC,Staphylococcus aureus [3],4 µg/mL
Cc1cc(O)c(C(C)C)cc1-c1ccc(F)cc1,MIC,Staphylococcus aureus [1],16 µg/mL
same,MIC,Staphylococcus aureus [2],16 µg/mL
same,MIC,Staphylococcus aureus [3],16 µg/mL
Cc1cc(OC(=O)CCCCCC[P+](c2ccccc2)(c2ccccc2)c2ccccc2)c(C(C)C)cc1-c1ccccc1.[Br-],MIC,Acinetobacter baumannii [4]; read-out: MIC100,8 µg/mL
same,MIC,Acinetobacter baumannii [5]; read-out: MIC100,8 µg/mL
same,MIC,Klebsiella pneumoniae [6]; read-out: MIC100,8 µg/mL
same,MIC,Escherichia coli [7],8 µg/mL
same,MIC,Pseudomonas aeruginosa [8]; read-out: MIC100,> 64 µg/mL
same,MIC,Klebsiella pneumoniae [9]; read-out: MIC100,8 µg/mL
same,MIC,Escherichia coli [10],8 µg/mL
same,IC50 at 72 h,[11],18.8 µg/mL
same,MIC,Pseudomonas aeruginosa [12]; read-out: MIC100,> 64 µg/mL
Cc1cc(O)c(C(C)C)cc1-c1ccncc1,MIC,Staphylococcus aureus [1],128 µg/mL
same,MIC,Staphylococcus aureus [2],128 µg/mL
same,MIC,Staphylococcus aureus [3],128 µg/mL
Cc1cc(O)c(C(C)C)cc1-c1ccccc1Cl,MIC,Staphylococcus aureus [1],8 µg/mL
same,MIC,Staphylococcus aureus [2],8 µg/mL
same,MIC,Staphylococcus aureus [3],8 µg/mL
Cc1cc(OC(=O)CCCCCCC[P+](c2ccccc2)(c2ccccc2)c2ccccc2)c(C(C)C)cc1-c1ccccc1.[Br-],MIC,Acinetobacter baumannii [4]; read-out: MIC100,16 µg/mL
same,MIC,Acinetobacter baumannii [5]; read-out: MIC100,8 µg/mL
same,MIC,Klebsiella pneumoniae [6]; read-out: MIC100,16 µg/mL
same,MIC,Escherichia coli [7],8 µg/mL
same,MIC,Pseudomonas aeruginosa [8]; read-out: MIC100,32 µg/mL
same,MIC,Klebsiella pneumoniae [9]; read-out: MIC100,16 µg/mL
same,MIC,Escherichia coli [10],4 µg/mL
same,IC50 at 72 h,[11],21.1 µg/mL
same,MIC,Pseudomonas aeruginosa [12]; read-out: MIC100,32 µg/mL
Cc1ccc(-c2cc(C(C)C)c(O)cc2C)cc1,MIC,Staphylococcus aureus [1],8 µg/mL
same,MIC,Staphylococcus aureus [2],8 µg/mL
same,MIC,Staphylococcus aureus [3],16 µg/mL
Cc1cc(O)c(C(C)C)cc1-c1ccccc1C#N,MIC,Staphylococcus aureus [1],16 µg/mL
same,MIC,Staphylococcus aureus [2],8 µg/mL
same,MIC,Staphylococcus aureus [3],8 µg/mL
Cc1cc(O)c(C(C)C)cc1-c1ccccc1F,MIC,Staphylococcus aureus [1],8 µg/mL
same,MIC,Staphylococcus aureus [2],16 µg/mL
same,MIC,Staphylococcus aureus [3],16 µg/mL
COc1cccc(-c2cc(C(C)C)c(O)cc2C)c1,MIC,Staphylococcus aureus [1],16 µg/mL
same,MIC,Staphylococcus aureus [2],16 µg/mL
same,MIC,Staphylococcus aureus [3],16 µg/mL
O=C(O)c1cn(C2CC2)c2cc(N3CCNCC3)c(F)cc2c1=O [CIPROFLOXACIN],Activity,Staphylococcus aureus [13],Active
same,MIC,Acinetobacter baumannii [4]; read-out: MIC,1 µg/mL
same,MIC,Staphylococcus aureus [1],2 µg/mL
same,MIC,Acinetobacter baumannii [5]; read-out: MIC,0.5 µg/mL
same,MIC,Klebsiella pneumoniae [6]; read-out: MIC,0.12 µg/mL
same,MIC,Staphylococcus aureus [2],1 µg/mL
same,Activity,Staphylococcus aureus [14],Active
same,MIC,Pseudomonas aeruginosa [8]; read-out: MIC,1 µg/mL
same,Activity,Staphylococcus aureus [15],Active
same,MIC,Klebsiella pneumoniae [9]; read-out: MIC,0.06 µg/mL
same,MIC,Staphylococcus aureus [3],1 µg/mL
same,MIC,Pseudomonas aeruginosa [12]; read-out: MIC,1 µg/mL
Cc1ccccc1-c1cc(C(C)C)c(O)cc1C,MIC,Staphylococcus aureus [1],8 µg/mL
same,MIC,Staphylococcus aureus [2],16 µg/mL
same,MIC,Staphylococcus aureus [3],8 µg/mL
Cc1cc(O)c(C(C)C)cc1-c1ccc(C(F)(F)F)cc1,MIC,Staphylococcus aureus [1],4 µg/mL
same,MIC,Staphylococcus aureus [2],8 µg/mL
same,MIC,Staphylococcus aureus [3],4 µg/mL
Cc1cc(O)c(C(C)C)cc1-c1cccc(C(=O)O)c1,MIC,Staphylococcus aureus [1],8 µg/mL
same,MIC,Staphylococcus aureus [2],16 µg/mL
same,MIC,Staphylococcus aureus [3],8 µg/mL
CN[C@H](CC(C)C)C(=O)N[C@H]1C(=O)N[C@@H](CC(N)=O)C(=O)N[C@H]2C(=O)N[C@H]3C(=O)N[C@H](C(=O)N[C@H](C(=O)O)c4cc(O)cc(O)c4-c4cc3ccc4O)[C@H](O)c3ccc(c(Cl)c3)Oc3cc2cc(c3O[C@@H]2O[C@H](CO)[C@@H](O)[C@H](O)[C@H]2O[C@H]2C[C@](C)(N)[C@H](O)[C@H](C)O2)Oc2ccc(cc2Cl)[C@H]1O,AC200,Staphylococcus aureus [16],Active
Cc1cc(OC(=O)CCC[P+](c2ccccc2)(c2ccccc2)c2ccccc2)c(C(C)C)cc1-c1ccccc1.[Br-],MIC,Acinetobacter baumannii [4]; read-out: MIC100,8 µg/mL
same,MIC,Acinetobacter baumannii [5]; read-out: MIC100,8 µg/mL
same,MIC,Klebsiella pneumoniae [6]; read-out: MIC100,16 µg/mL
same,MIC,Escherichia coli [7],16 µg/mL
same,MIC,Pseudomonas aeruginosa [8]; read-out: MIC100,64 µg/mL
same,MIC,Klebsiella pneumoniae [9]; read-out: MIC100,32 µg/mL
same,MIC,Escherichia coli [10],16 µg/mL
same,IC50 at 72 h,[11],5.04 µg/mL
same,MIC,Pseudomonas aeruginosa [12]; read-out: MIC100,> 64 µg/mL
Cc1cc(O)c(C(C)C)cc1-c1ccc(C(=O)O)cc1,MIC,Staphylococcus aureus [1],16 µg/mL
same,MIC,Staphylococcus aureus [2],8 µg/mL
same,MIC,Staphylococcus aureus [3],16 µg/mL
Cc1cc(O)c(C(C)C)cc1-c1cccc(F)c1,MIC,Staphylococcus aureus [1],16 µg/mL
same,MIC,Staphylococcus aureus [2],16 µg/mL
same,MIC,Staphylococcus aureus [3],16 µg/mL
Cc1cc(OC(=O)CCCCCCCCC[P+](c2ccccc2)(c2ccccc2)c2ccccc2)c(C(C)C)cc1-c1ccccc1.[Br-],MIC,Acinetobacter baumannii [4]; read-out: MIC100,16 µg/mL
same,MIC,Acinetobacter baumannii [5]; read-out: MIC100,32 µg/mL
same,MIC,Klebsiella pneumoniae [6]; read-out: MIC100,32 µg/mL
same,MIC,Escherichia coli [7],64 µg/mL
same,MIC,Pseudomonas aeruginosa [8]; read-out: MIC100,32 µg/mL
same,MIC,Klebsiella pneumoniae [9]; read-out: MIC100,> 64 µg/mL
same,MIC,Escherichia coli [10],4 µg/mL
same,IC50 at 72 h,[11],8.67 µg/mL
same,MIC,Pseudomonas aeruginosa [12]; read-out: MIC100,32 µg/mL
